From US6492399B1, “Pharmaceutical compositions and methods for use” (Targacept, Inc., priority 1998, dated 2002)

Key:
Assay type in all cases: biochemical
rubidium ion flux = experiment: Determination of rubidium ion release (rubidium ion flux assay); settings: rubidium ion released relative to 300 uM tetramethylammonium ion
Protocol: Determination of Rubidium Ion Release
Rubidium release was measured using the techniques described in Bencherif et al., JPET, 279: 1413-1421 (1996). Reported EC50 values are expressed in nM, and Ema, values represent the amount of rubidium ion released relative to 300 uM tetramethylammonium ion, on a percentage basis.

dopamine release = experiment: Determination of dopamine release; settings: amount released relative to (S)-(-)-nicotine
Protocol: Determination of Dopamine Release
Dopamine release was measured using the techniques described in U.S. Pat. No. 5,597,919 to Dull et al. Release is expressed as a percentage of release obtained with a concentration of (S)-(−)-nicotine resulting in maximal effects. Reported EC50 values are expressed in nM, and Emax values represent the amount released relative to (S)-(−)-nicotine on a percentage basis.

Rat brain synaptosomes = experiment: Neurotransmitter release from brain synaptosomes; settings: 10 μM ligand; percentage of release with 10 μM (S)-(-)-nicotine or 300 μM TMA
Protocol: Neurotransmitter Release From Brain Synaptosomes
Neurotransmitter release was measured using techniques similar to those previously published (Bencherif M, et al . . . JPET279: 1413-1421, 1996).
Rat brain synaptosomes were prepared as follows: Female Sprague Dawley rats (100-200 g) were killed by decapitation after anesthesia with 70% CO2. Brains are dissected, and hippocampus, striatum, and thalamus isolated, and homogenized in 0.32 M sucrose containing 5 mM HEPES pH 7.4 using a glass/glass homogenizer. The tissue was then centrifuged for 1000×g for 10 minutes and the pellet discarded. The supernatant was centrifuged at 12000×g for 20 minutes. The resultant pellet was re-suspended in perfusion buffer (128 mM NaCl, 1.2 mM KH2PO4, 2.4 mM KCl, 3.2 mM CaCl2, 1.2 mM MgSO4, 25 mM HEPES, 1 mM Ascorbic acid, 0.01 mM pargyline HCl and 10 mM glucose pH 7.4) and centrifuged for 15 minutes at 25000×g. The final pellet was resuspended in perfusion buffer and placed in a water bath (37° C.) for 10 minutes. Radiolabeled neurotransmitter is added (30 μL ^3H DA, 20 μL ^3H NE, 10 μL ^3H glutamate) to achieve a final concentration of 100 nM, vortexed and placed in a water bath for additional 10 minutes. Tissue-loaded filters is placed onto 11-mm diameter Gelman A/E filters on an open-air support. After a 10-minute wash period, fractions are collected to establish the basal release and agonist applied in the perfusion stream. Further fractions were collected after agonist application to re-establish the baseline. The perfusate was collected directly into scintillation vials and released radioactivity was quantified using conventional liquid scintillation techniques. Release of neurotransmitter was determined in the presence of 10μM of various ligands and was expressed as a percentage of release obtained with a concentration of 10 μM (S)-(−)-nicotine or 300 μM TMA resulting in maximal effects.

CNCC/C=C/c1cncc(OCC(C)C)c1 [Sample No. 6, (3E)-N-methyl-4-(3-(5-isobutoxypyridin)yl)-3-buten-1-amine hemigalactarate]
Emax in the rubidium ion flux assay (rubidium ion flux): 15% | Emax for dopamine release (dopamine release): 25%

CC(N)CC=Cc1cncc(OC(C)C)c1 (centres unmarked) [Sample No. 12, (4E)-5-(3-(5-isopropoxypyridin)yl)-4-penten-2-amine hemigalactarate]
neurotransmitter release Emax (Rat brain synaptosomes): 32%

CN[C@@H](C)C/C=C/c1cc(OC(C)C)c[n+]([O-])c1 [Sample No. 5]
neurotransmitter release Emax (Rat brain synaptosomes): 19%

CNCC/C=C/c1cncc(C(=O)NCc2ccccc2)c1 [Sample No. 2, (3E)-N-methyl-N-[3-(5-(N-benzylcarboxamido)pyridin)yl]-3-buten-1-amine]
Emax for dopamine release (dopamine release): 12%

CCSc1cncc(/C=C/CCNC)c1 [Sample No. 9, (3 E)-N-methyl-4-(3-(5-ethylthiopyridin)yl)-3-buten-1-amine hemigalactarate]
Emax in the rubidium ion flux assay (rubidium ion flux): 40% | Emax for dopamine release (dopamine release): 39%

CNC(C)CC=Cc1cncc(C(F)(F)F)c1 (centres unmarked) [Sample No. 10, (4E)-N-methyl-5-(3-(5-trifluoromethylpyridin)yl)-4-penten-2-amine]
neurotransmitter release Emax (Rat brain synaptosomes): 50% | Emax in the rubidium ion flux assay (rubidium ion flux): 0%

CNC(C)CC=Cc1cncc(O)c1 (centres unmarked) [Sample No. 13, (4E)-N-methyl-5-(3-(5-hydroxypyridin)yl)-4-penten-2-amine sesquioxalate]
neurotransmitter release Emax (Rat brain synaptosomes): 80%

CNC(C)CC=Cc1ccc[n+]([O-])c1 (centres unmarked) [Sample No. 8, (4E)-N-methyl-5-(3-(1-oxopyridin)yl)-4-penten-2-amine]
neurotransmitter release Emax (Rat brain synaptosomes): 9%
